Values quoted from earlier work as cited in patent US20120128764A1, “CONTROLLED-RELEASE COMPOSITIONS COMPRISING A PROTON PUMP INHIBITOR” (Aptalis Pharmatech, Inc., priority 2009, published 2012).

Assays:
[1] = not given; remark: listed apart in the source

## COc1ccnc(C[S+]([O-])c2nc3ccc(OC(F)F)cc3[nH]2)c1OC (stereo not drawn) [Pantoprazole sodium sesquihydrate]
Phosphate buffer at pH 7.4
  solubility in phosphate buffer: very slightly soluble
water
  solubility in water: freely soluble

## COc1ccnc(C[S+]([O-])c2nc3ccc(OC(F)F)cc3[nH]2)c1OC (stereo not drawn) [Pantoprazole, 5-(difluoromethoxy)-2-[(3,4-dimethoxypyridin-2-yl)methylsulfinyl]-3H-benzoimidazole]
[1]; after oral administration
  mean Tmax: approximately 90 minutes
[1]; elimination
  half-life (t1/2): 1.8 h
[1]; multiple dosing
  accumulation upon multiple dosing: does not accumulate
[1]; over 10 mg to 80 mg doses
  dose proportionality of Cmax and AUC: dose proportional
